# Columns and labels:
# HCT116 MTAP null cells = assay: HCT116 proliferation assay, MTAP null cells (CellTiter-Glo, 6 days); assay type: cell-based; settings: HCT116-MTAP null, 144 h, read-out: Protif_ HCT116-MTAP null IC50
# How it was run: (§1)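 Luminescent viability signal was measured after continuous drug exposure. Before dosing, cells attached overnight (37° C, 5% CO2) in RPMI 1640 + 10% FBS. Dosing used 1:3 steps over 8 or 9 points, starting at 1 or 10 µM, with DMSO-only wells as control.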
# HCT116 WT cells = assay: HCT116 proliferation assay, WT cells (CellTiter-Glo, 6 days); assay type: cell-based; settings: Homo sapiens, HCT-116, 144 h, read-out: Prolif_HCT116-WT IC50
# How it was run: as §1
# PRMT5/MEP50 = PRMT5/MEP50 (Homo sapiens, UniProt O14744); assay: MTase-Glo methyl transferase assay, Method A (Histone H4 peptide, 1 µM MTA, 24 h pre-incubation); assay type: biochemical; set-up: made in house; settings: read-out: PRMT5 MTase Glo Ki (nM, Meth. A)
# Sequence of PRMT5/MEP50 (O14744 whole entry): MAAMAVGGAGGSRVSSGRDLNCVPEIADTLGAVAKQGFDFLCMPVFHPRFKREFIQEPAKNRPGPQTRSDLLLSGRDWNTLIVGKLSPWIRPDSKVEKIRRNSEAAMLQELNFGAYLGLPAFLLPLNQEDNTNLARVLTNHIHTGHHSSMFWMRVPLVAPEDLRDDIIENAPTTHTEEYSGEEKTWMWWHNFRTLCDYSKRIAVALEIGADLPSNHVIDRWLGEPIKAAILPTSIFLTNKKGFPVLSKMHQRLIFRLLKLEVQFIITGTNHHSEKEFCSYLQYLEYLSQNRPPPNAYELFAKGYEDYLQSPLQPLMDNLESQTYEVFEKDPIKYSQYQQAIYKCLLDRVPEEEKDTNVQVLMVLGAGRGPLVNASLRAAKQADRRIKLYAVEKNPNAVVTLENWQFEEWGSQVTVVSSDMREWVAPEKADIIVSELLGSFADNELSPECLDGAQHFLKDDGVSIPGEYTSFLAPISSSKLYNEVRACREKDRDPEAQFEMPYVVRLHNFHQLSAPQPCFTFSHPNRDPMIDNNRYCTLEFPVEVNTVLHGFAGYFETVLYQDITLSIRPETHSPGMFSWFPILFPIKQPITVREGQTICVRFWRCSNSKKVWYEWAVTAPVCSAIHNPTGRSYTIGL
# Sequence of PRMT5/MEP50 (Q9BQA1 whole entry partner): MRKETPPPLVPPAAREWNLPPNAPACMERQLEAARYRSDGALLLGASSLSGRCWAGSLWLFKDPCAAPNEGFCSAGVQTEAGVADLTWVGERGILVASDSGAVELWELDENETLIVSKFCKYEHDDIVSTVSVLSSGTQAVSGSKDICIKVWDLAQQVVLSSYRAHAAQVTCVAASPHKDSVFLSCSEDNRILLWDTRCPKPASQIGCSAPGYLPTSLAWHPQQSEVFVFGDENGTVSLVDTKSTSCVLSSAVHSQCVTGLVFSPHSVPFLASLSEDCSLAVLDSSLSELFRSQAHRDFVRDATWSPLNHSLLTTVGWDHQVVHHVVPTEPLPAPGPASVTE
# Procedure: Method A: The PRMT5 inhibitory activity of test compounds was determined using the MTase-Glo™ assay (Promega), which monitors the product (S-adenosyl homocysteine or SAH) of methyltransferase reactions. The PRMT5 MTase-Glo assay was conducted in a 384-well white ProxiPlate (PerkinElmer) in a total volume of 12 µL. The PRMT5 enzymatic reaction (in 4 µL) contained 10 nM PRMT5/MEP50 (produced at Amgen), 5 µM S-adenosyl methionine (SAM, Promega), 1 µM Histone H4 (1-21)-Lys(Biotin) (Anaspec), 1 µM 5′-methylthioadenosine (MTA, Sigma) and two-fold serially diluted compounds in a reaction buffer of 50 mM Tris (pH 8.0), 50 mM NaCl, 0.01% Tween 20, 0.01% BSA, and 1 mM DTT. Test compounds were pre-incubated with PRMT5/MEP50, SAM, and MTA for 24 hours before addition of Histone H4 peptide to initiate the PRMT5 reaction. The reaction was allowed to proceed for 2 hours at room temperature and was then terminated by addition of 2 µL of 3X MTase-Glo™ Reagent (Promega) and 150 µM EPZ015666 (Sigma). After a 30-minute incubation at room temperature, 6 µL of MTase-Glo™ Detection Solution (Promega) was added and the plate was incubated at room temperature for an additional 30 minutes. The light signal corresponding to the amount of SAH produced by the PRMT5 reaction was subsequently measured using an Envision multimode reader (PerkinElmer). IC50 and KI values were obtained by analyzing dose-response curves using Genedata Screener (Genedata).
Structure (SMILES),IC50 (HCT116 MTAP null cells) [nM],IC50 (HCT116 WT cells) [nM],Ki (PRMT5/MEP50) [nM]
"CC(C)CN(Cc1ccc(C(F)(F)F)cn1)C(=O)c1ccc2nc(N)c(Br)cc2c1 [Example 318, 2-amino-3-bromo-N-(2-methylpropyl)-N-((5-(trifluoromethyl)-2-pyridinyl)methyl)-6-quinolinecarboxamide]",952,> 10000,1.91
"Cc1cc2cc(C(=O)N(Cc3ncc(C(F)(F)F)cc3Cl)[C@H](C)c3ncccc3F)ccc2nc1N [Example 396, 2-amino-N-((3-chloro-5-(trifluoromethyl)-2-pyridinyl)methyl)-N-((1R)-1-(3-fluoro-2-pyridinyl)ethyl)-3-methyl-6-quinolinecarboxamide]",793,> 10000,0.27
"Cc1cc2cc(C(=O)N(Cc3ccc(C(F)(F)F)cn3)C3CC3)c(F)cc2nc1N [Example 332, 2-amino-N-cyclopropyl-7-fluoro-3-methyl-N-((5-(trifluoromethyl)-2-pyridinyl)methyl)-6-quinolinecarboxamide]",479,5140,4.87
"Cc1cc2cc(C(=O)N(Cc3ccc(C(F)(F)F)cn3)Cc3ncccc3F)ncc2nc1N [Example 312, 2-amino-N-((3-fluoro-2-pyridinyl)methyl)-3-methyl-N-((5-(trifluoromethyl)-2-pyridinyl)methyl)-1,7-naphthyridine-6-carboxamide]",806,> 10000,0.36
"Cc1cc([C@@H](C)N(Cc2ccc(C(F)(F)F)cn2)C(=O)c2ccc3nc(N)c(C)cc3c2)no1 [Example 392, 2-amino-3-methyl-N-((1R)-1-(5-methyl-1,2-oxazol-3-yl)ethyl)-N-((5-(trifluoromethyl)-2-pyridinyl)methyl)-6-quinolinecarboxamide]",193,6860,0.5
"Cc1cc2cc(C(=O)N(Cc3cnc(C(F)(F)F)cn3)[C@H](C)c3ncccn3)ccc2nc1N (single isomer, unassigned) [Example 449]",168,5900,0.27
"C[C@H](c1ncccn1)N(Cc1ccc(C#N)cn1)C(=O)c1cnc2nc(N)c(Br)cc2c1 [Example 406, 7-amino-6-bromo-N-((5-cyano-2-pyridinyl)methyl)-N-((1R)-1-(2-pyrimidinyl)ethyl)-1,8-naphthyridine-3-carboxamide]",682,> 10000,0.47
"Cc1cc2cc(C(=O)N(Cc3ccc4ccccc4n3)[C@H](C)c3ncccn3)ccc2nc1N (single isomer, unassigned) [Example 446]",45,851,0.04
"Cc1cc2cc(C(=O)N(Cc3ccc(C(F)(F)F)cn3)Cc3ncc(F)cc3F)ccc2nc1N [Example 384, 2-amino-N-((3,5-difluoro-2-pyridinyl)methyl)-3-methyl-N-((5-(trifluoromethyl)-2-pyridinyl)methyl)-6-quinolinecarboxamide]",177,5100,0.01
"Nc1nc2ccc(C(=O)N(Cc3ccc(C(F)(F)F)cn3)Cc3ncccn3)cc2cc1Br [Example 317, 2-amino-3-bromo-N-(2-pyrimidinylmethyl)-N-((5-(trifluoromethyl)-2-pyridinyl)methyl)-6-quinolinecarboxamide]",612,> 10000,0.56
"Cc1cc2cc(C(=O)N(Cc3ccncc3)Cc3ccc(C(F)(F)F)cn3)ccc2nc1N [Example 342, 2-amino-3-methyl-N-(4-pyridinylmethyl)-N-((5-(trifluoromethyl)-2-pyridinyl)methyl)-6-quinolinecarboxamide]",730,> 10000,2.72
"Cc1cc2cc(C(=O)N(Cc3ccc(C#N)cn3)[C@H](C)c3ncccn3)c(F)cc2nc1N [Example 404, 2-amino-N-((5-cyano-2-pyridinyl)methyl)-7-fluoro-3-methyl-N-((1R)-1-(2-pyrimidinyl)ethyl)-6-quinolinecarboxamide]",90,3160,1.68
"Cc1cc2cc(C(=O)N(Cc3ccc(C(F)F)nn3)[C@H](C)c3ncccn3)ccc2nc1N [Example 380, 2-amino-N-((6-(difluoromethyl)-3-pyridazinyl)methyl)-3-methyl-N-((1R)-1-(2-pyrimidinyl)ethyl)-6-quinolinecarboxamide]",79,1670,0.27
"Cc1cc2cc(C(=O)N(Cc3ccc(C(F)(F)F)cn3)Cc3ncccc3Cl)ccc2nc1N [Example 303, 2-amino-N-((3-chloro-2-pyridinyl)methyl)-3-methyl-N-((5-(trifluoromethyl)-2-pyridinyl)methyl)-6-quinolinecarboxamide]",32,600,0.01
"Cc1cc(C(F)(F)F)ccc1CN(Cc1ncccc1F)C(=O)c1ccc2nc(N)c(C)cc2c1 [Example 329, 2-amino-N-((3-fluoro-2-pyridinyl)methyl)-3-methyl-N-(2-methyl-4-(trifluoromethyl)benzyl)-6-quinolinecarboxamide]",128,3900,0.13
"Cc1cc2cc(C(=O)N(Cc3ccc(Br)nn3)[C@H](C)c3ncccn3)ccc2nc1N (single isomer, unassigned) [Example 450]",45,2020,0.13

# Now from value to compound:
IC50 (HCT116 MTAP null cells) [nM],IC50 (HCT116 WT cells) [nM],Ki (PRMT5/MEP50) [nM],Structure (SMILES)
155,3640,0.14,"CC[C@H](c1ncccn1)N(Cc1cnc(C(F)(F)F)cn1)C(=O)c1ccc2nc(N)c(C)cc2c1 (single isomer, unassigned) [Example 516]"
60,1220,0.09,"COc1ccc(CN(C(=O)c2cc3cc(C)c(N)nc3cc2F)[C@H](C)c2ncccn2)nn1 (single isomer, unassigned) [Example 479]"
108,1710,0.18,"COC[C@H](c1ccccn1)N(Cc1ccc(C(F)(F)F)cn1)C(=O)c1ccc2nc(N)c(C)cc2c1 (single isomer, unassigned) [Example 530]"
21,723,0.08,"C[C@H](c1ncccn1)N(Cc1ccc(C(F)(F)F)cn1)C(=O)c1ccc2nc(N)c(I)cc2c1 (single isomer, unassigned) [Example 544]"
598,7610,0.23,"Cc1cc2cc(C(=O)N(Cc3ccc(C(F)(F)F)nn3)[C@H](C)c3ncccc3Cl)ccc2nc1N (single isomer, unassigned) [Example 525]"
107,5920,0.02,"CC[C@H](c1ncccn1)N(Cc1ccc(C(F)F)cn1)C(=O)c1ccc2nc(N)c(Br)cc2c1 (single isomer, unassigned) [Example 501]"
459,2030,2.43,"Cc1cc2cc(C(=O)N(Cc3ccc(C(F)(F)F)cn3)[C@@H](C)c3ncn(C)n3)c(F)cc2nc1N (single isomer, unassigned) [Example 498]"
109,3260,0.06,"Cc1cc2cc(C(=O)N(Cc3ccc(C#N)cn3)[C@H](C)c3ncccn3)ccc2nc1N [Example 502, (R)-2-amino-N-((5-cyanopyridin-2-yl)methyl)-3-methyl-N-(1-(pyrimidin-2-yl)ethyl)quinoline-6-carboxamide]"
56,1700,0.73,"Cc1cc2cc(C(=O)N(Cc3ccc(C(F)F)cn3)[C@H](C)c3ncccn3)ccc2nc1N [Example 508, 2-amino-N-((5-(difluoromethyl)-2-pyridinyl)methyl)-3-methyl-N-((1R)-1-(2-pyrimidinyl)ethyl)-6-quinolinecarboxamide]"
38,1300,0.08,"Cc1cc2cc(C(=O)N(Cc3ccc(C4=CCCOC4)cn3)[C@H](C)c3ncccn3)ccc2nc1N [Example 558, 2-amino-N-((5-(5,6-dihydro-2H-pyran-3-yl)-2-pyridinyl)methyl)-3-methyl-N-((1R)-1-(2-pyrimidinyl)ethyl)-6-quinolinecarboxamide]"
268,4460,0.07,"Cc1cc2cc(C(=O)N(Cc3ccc(C#N)cc3)[C@H](C)c3ncccn3)ccc2nc1N (single isomer, unassigned) [Example 475]"
106,4320,0.1,"Cc1cc2cc(C(=O)N(Cc3ccc(C(F)(F)F)cn3)[C@H](C)c3cnccn3)ccc2nc1N (single isomer, unassigned) [Example 482]"
71,1510,0.1,"Cc1cc2cc(C(=O)N(Cc3ccc(C(F)(F)F)cn3)[C@@H]3CCCn4ncnc43)ccc2nc1N (single isomer, unassigned) [Example 464]"

# Reference: patent publication US20230159510A1, “NOVEL PRMT5 INHIBITORS” (AMGEN INC., priority 2020, published 2023)
